Laboratory results taken from article PMC9024338, “Bruceine H Mediates EGFR-TKI Drug Persistence in NSCLC by Notch3-Dependent β-Catenin Activating FOXO3a Signaling” (Frontiers in Oncology, 2022).
Where “and” joins values, the source holds several entries; their conditions need not be identical. Identical values can stand only once. Like-named read-outs stand apart in the source and are kept apart here.

Key:
A549 cells = assay: Wound healing assay for migration; format: cell-based, human; settings: 4 μM, 48 h
Method: A549 cells (3 × 10^5/ml/well) were seeded into a six-well plate. After overnight culture, when the fusion rate reached 95%–100%, the sterile pipette tip was perpendicular to the plate plane, and a straight wound was drawn on the cell monolayer. Following treatment with BD or BH, the migration of the cells was examined under a microscope (×4, Nikon, Tokyo, Japan), and pictures were obtained at 0 and 48 h. The computation of the cell migration formula is as follows: relative migration area (%) = (0 h wound area – 48 h wound area)/0 h wound area × 100%.

[1] = Preliminary pharmacokinetics in SD rats; format: in vivo; settings: for AUC(0-inf) / AUC(0-t) / clearance / half-life / Cmax / Vd / concentration at 5 min / concentration at 10 min / concentration at 0.25 h / concentration at 0.5 h / concentration at 0.75 h / concentration at 1 h / concentration at 2 h / concentration at 4 h / concentration at 6 h / concentration at 8 h / concentration at 12 h / concentration at 24 h / MRT inf / k el: male, SD, rat, plasma; for Cmax: read-out: Maximum concentration (C max)
Method: We administered BH by gavage and intravenous administration to SD rats (male, 200–220 g, n = 6) after they had fasted for 12 h. For oral gavage, the BH was dissolved in DMSO/0.5% CMC-Na (5/95, v/v/), and for intravenous administration, it was dissolved in DMSO/0.9% NaCl (5/95, v/v/), and then the blood samples were collected at intervals to determine the pharmacokinetic (PK) profiles of SD rats.

CC1=CC(=O)[C@@H](O)[C@]2(C)[C@H]3[C@@H](O)[C@H](O)[C@@]4(CO)OC[C@@]35[C@@H](C[C@@H]12)OC(=O)[C@H](O)[C@]54O [BH, Bruceine H]
migration of A549 cells (wound healing) (A549 cells): impaired | Concentration of BH in rat plasma, individual rats No1-No3 ([1]; i.v. 2 mg/kg, 5 min, 2 mg/kg): 484.6 ng/mL and 469.6 ng/mL | Concentration of BH in rat plasma, individual rats No1-No3 ([1]; i.v. 2 mg/kg, 10 min, 2 mg/kg): 455.4 ng/mL and 450.6 ng/mL | Concentration of BH in rat plasma, individual rats No1-No3 ([1]; i.v. 2 mg/kg, 0.25 h, 2 mg/kg): 398.5 ng/mL and 384.2 ng/mL | Concentration of BH in rat plasma, individual rats No1-No3 ([1]; i.v. 2 mg/kg, 0.5 h, 2 mg/kg): 245.3 ng/mL and 234.1 ng/mL | Concentration of BH in rat plasma, individual rats No1-No3 ([1]; i.v. 2 mg/kg, 0.75 h, 2 mg/kg): 177.7 ng/mL and 180.4 ng/mL | Concentration of BH in rat plasma, individual rats No1-No3 ([1]; i.v. 2 mg/kg, 1 h, 2 mg/kg): 135.4 ng/mL and 119.6 ng/mL | Concentration of BH in rat plasma, individual rats No1-No3 ([1]; i.v. 2 mg/kg, 2 h, 2 mg/kg): 95.3 ng/mL and 98.5 ng/mL | Concentration of BH in rat plasma, individual rats No1-No3 ([1]; i.v. 2 mg/kg, 4 h, 2 mg/kg): 55.4 ng/mL and 51.2 ng/mL | Concentration of BH in rat plasma, individual rats No1-No3 ([1]; i.v. 2 mg/kg, 6 h, 2 mg/kg): 40.4 ng/mL and 42.1 ng/mL | Concentration of BH in rat plasma, individual rats No1-No3 ([1]; i.v. 2 mg/kg, 8 h, 2 mg/kg): 18.8 ng/mL and 25.4 ng/mL | Concentration of BH in rat plasma, individual rats No1-No3 ([1]; i.v. 2 mg/kg, 12 h, 2 mg/kg): 12.3 ng/mL and 21.3 ng/mL | Concentration of BH in rat plasma, individual rats No1-No3 ([1]; i.v. 2 mg/kg, 24 h, 2 mg/kg): 6.3 ng/mL and 10.2 ng/mL | AUC(0-inf) ([1]; iv, 2 mg/kg, SD rats, 2 mg/kg iv, read-out: AUC0–inf): 1050 ng·h/mL | AUC(0-t) ([1]; iv, 2 mg/kg, SD rats, 2 mg/kg iv, read-out: AUC0–last): 944 ng·h/mL | clearance ([1]; iv, 2 mg/kg, SD rats, 2 mg/kg iv, read-out: Clearance (CL) (converted)): 31.9 mL/min/kg | half-life ([1]; iv, 2 mg/kg, SD rats, 2 mg/kg iv, read-out: Half-life (T 1/2) (converted)): 9.69 h | Cmax ([1]; iv, 2 mg/kg, SD rats, 2 mg/kg iv): 477 ng/mL | Vd ([1]; iv, 2 mg/kg, SD rats, 2 mg/kg iv, read-out: Volume of distribution (V ss)): 26.5 L/kg | concentration at 5 min ([1]; iv, 2 mg/kg, i.v. 2 mg/kg, 5 min, read-out: Concentration of BH in rat plasma, Mean): 477 ng/mL | concentration at 5 min ([1]; iv, 2 mg/kg, i.v. 2 mg/kg, 5 min, read-out: Concentration of BH in rat plasma, individual rats No1-No3): 478 ng/mL | concentration at 10 min ([1]; iv, 2 mg/kg, i.v. 2 mg/kg, 10 min, read-out: Concentration of BH in rat plasma, Mean): 442 ng/mL | concentration at 10 min ([1]; iv, 2 mg/kg, i.v. 2 mg/kg, 10 min, read-out: Concentration of BH in rat plasma, individual rats No1-No3): 420 ng/mL | concentration at 0.25 h ([1]; iv, 2 mg/kg, i.v. 2 mg/kg, 0.25 h, read-out: Concentration of BH in rat plasma, Mean): 384 ng/mL | concentration at 0.25 h ([1]; iv, 2 mg/kg, i.v. 2 mg/kg, 0.25 h, read-out: Concentration of BH in rat plasma, individual rats No1-No3): 371 ng/mL | concentration at 0.5 h ([1]; iv, 2 mg/kg, i.v. 2 mg/kg, 0.5 h, read-out: Concentration of BH in rat plasma, Mean): 236 ng/mL | concentration at 0.5 h ([1]; iv, 2 mg/kg, i.v. 2 mg/kg, 0.5 h, read-out: Concentration of BH in rat plasma, individual rats No1-No3): 228 ng/mL | concentration at 0.75 h ([1]; iv, 2 mg/kg, i.v. 2 mg/kg, 0.75 h, read-out: Concentration of BH in rat plasma, Mean): 177 ng/mL | concentration at 0.75 h ([1]; iv, 2 mg/kg, i.v. 2 mg/kg, 0.75 h, read-out: Concentration of BH in rat plasma, individual rats No1-No3): 172 ng/mL | concentration at 1 h ([1]; iv, 2 mg/kg, i.v. 2 mg/kg, 1 h, read-out: Concentration of BH in rat plasma, Mean): 127 ng/mL | concentration at 1 h ([1]; iv, 2 mg/kg, i.v. 2 mg/kg, 1 h, read-out: Concentration of BH in rat plasma, individual rats No1-No3): 125 ng/mL | concentration at 2 h ([1]; iv, 2 mg/kg, i.v. 2 mg/kg, 2 h, read-out: Concentration of BH in rat plasma, Mean): 99.1 ng/mL | concentration at 2 h ([1]; iv, 2 mg/kg, i.v. 2 mg/kg, 2 h, read-out: Concentration of BH in rat plasma, individual rats No1-No3): 104 ng/mL | concentration at 4 h ([1]; iv, 2 mg/kg, i.v. 2 mg/kg, 4 h, read-out: Concentration of BH in rat plasma, Mean): 54.9 ng/mL | concentration at 4 h ([1]; iv, 2 mg/kg, i.v. 2 mg/kg, 4 h, read-out: Concentration of BH in rat plasma, individual rats No1-No3): 58 ng/mL | concentration at 6 h ([1]; iv, 2 mg/kg, i.v. 2 mg/kg, 6 h, read-out: Concentration of BH in rat plasma, Mean): 40 ng/mL | concentration at 6 h ([1]; iv, 2 mg/kg, i.v. 2 mg/kg, 6 h, read-out: Concentration of BH in rat plasma, individual rats No1-No3): 37.6 ng/mL | concentration at 8 h ([1]; iv, 2 mg/kg, i.v. 2 mg/kg, 8 h, read-out: Concentration of BH in rat plasma, Mean): 24.5 ng/mL | concentration at 8 h ([1]; iv, 2 mg/kg, i.v. 2 mg/kg, 8 h, read-out: Concentration of BH in rat plasma, individual rats No1-No3): 29.2 ng/mL | concentration at 12 h ([1]; iv, 2 mg/kg, i.v. 2 mg/kg, 12 h, read-out: Concentration of BH in rat plasma, Mean): 17.9 ng/mL | concentration at 12 h ([1]; iv, 2 mg/kg, i.v. 2 mg/kg, 12 h, read-out: Concentration of BH in rat plasma, individual rats No1-No3): 20 ng/mL | concentration at 24 h ([1]; iv, 2 mg/kg, i.v. 2 mg/kg, 24 h, read-out: Concentration of BH in rat plasma, Mean): 7.37 ng/mL | concentration at 24 h ([1]; iv, 2 mg/kg, i.v. 2 mg/kg, 24 h, read-out: Concentration of BH in rat plasma, individual rats No1-No3): 5.6 ng/mL | AUC(0-t) ([1]; iv, 2 mg/kg, i.v., read-out: AUC (0-t), Mean): 944 ng·h/mL | AUC(0-t) ([1]; iv, 2 mg/kg, i.v., read-out: AUC (0-t), individual rats No1-No3): 965 ng·h/mL | AUC(0-inf) ([1]; iv, 2 mg/kg, i.v., read-out: AUC (0-∞), individual rats No1-No3): 1020 ng·h/mL | clearance ([1]; iv, 2 mg/kg, i.v., read-out: CLz, Mean (converted)): 31.9 mL/min/kg | clearance ([1]; iv, 2 mg/kg, i.v., read-out: CLz, individual rats No1-No3 (converted)): 32.7 mL/min/kg | concentration at 24 h ([1]; iv, 2 mg/kg, i.v., read-out: C_last, Mean): 7.35 ng/mL | concentration at 24 h ([1]; iv, 2 mg/kg, i.v., read-out: C_last, individual rats No1-No3): 5.6 ng/mL | MRT inf ([1]; iv, 2 mg/kg, i.v., read-out: MRT (0-∞), Mean): 8.44 h | MRT inf ([1]; iv, 2 mg/kg, i.v., read-out: MRT (0-∞), individual rats No1-No3): 6.47 h | Vd ([1]; iv, 2 mg/kg, i.v., read-out: Vz, Mean): 26.5 L/kg | Vd ([1]; iv, 2 mg/kg, i.v., read-out: Vz, individual rats No1-No3): 18.6 L/kg | half-life ([1]; iv, 2 mg/kg, i.v., read-out: t1/2z, Mean (converted)): 9.69 h | half-life ([1]; iv, 2 mg/kg, i.v., read-out: t1/2z, individual rats No1-No3 (converted)): 6.55 h | k el ([1]; iv, 2 mg/kg, i.v., read-out: λz, Mean (converted)): 2.11e-05 s⁻¹ | k el ([1]; iv, 2 mg/kg, i.v., read-out: λz, individual rats No1-No3 (converted)): 2.94e-05 s⁻¹ | AUC(0-inf) ([1]; po, 10 mg/kg, SD rats, 10 mg/kg po, read-out: AUC0–inf): 976 ng·h/mL | AUC(0-t) ([1]; po, 10 mg/kg, SD rats, 10 mg/kg po, read-out: AUC0–last): 961 ng·h/mL | half-life ([1]; po, 10 mg/kg, SD rats, 10 mg/kg po, read-out: Half-life (T 1/2) (converted)): 3.35 h | Cmax ([1]; po, 10 mg/kg, SD rats, 10 mg/kg po): 147 ng/mL | concentration at 0.25 h ([1]; po, 10 mg/kg, p.o. 10 mg/kg, 0.25 h, read-out: Concentration of BH in rat plasma, Mean): 11.8 ng/mL | concentration at 0.25 h ([1]; po, 10 mg/kg, p.o. 10 mg/kg, 0.25 h, read-out: Concentration of BH in rat plasma, individual rats No1-No3): 13.6 ng/mL | concentration at 0.5 h ([1]; po, 10 mg/kg, p.o. 10 mg/kg, 0.5 h, read-out: Concentration of BH in rat plasma, Mean): 58.1 ng/mL | concentration at 0.5 h ([1]; po, 10 mg/kg, p.o. 10 mg/kg, 0.5 h, read-out: Concentration of BH in rat plasma, individual rats No1-No3): 68.4 ng/mL | concentration at 0.75 h ([1]; po, 10 mg/kg, p.o. 10 mg/kg, 0.75 h, read-out: Concentration of BH in rat plasma, Mean): 104 ng/mL | concentration at 0.75 h ([1]; po, 10 mg/kg, p.o. 10 mg/kg, 0.75 h, read-out: Concentration of BH in rat plasma, individual rats No1-No3): 111 ng/mL | concentration at 1 h ([1]; po, 10 mg/kg, p.o. 10 mg/kg, 1 h, read-out: Concentration of BH in rat plasma, Mean): 147 ng/mL | concentration at 1 h ([1]; po, 10 mg/kg, p.o. 10 mg/kg, 1 h, read-out: Concentration of BH in rat plasma, individual rats No1-No3): 154 ng/mL | concentration at 2 h ([1]; po, 10 mg/kg, p.o. 10 mg/kg, 2 h, read-out: Concentration of BH in rat plasma, Mean): 123 ng/mL | concentration at 2 h ([1]; po, 10 mg/kg, p.o. 10 mg/kg, 2 h, read-out: Concentration of BH in rat plasma, individual rats No1-No3): 130 ng/mL | concentration at 4 h ([1]; po, 10 mg/kg, p.o. 10 mg/kg, 4 h, read-out: Concentration of BH in rat plasma, Mean): 101 ng/mL | concentration at 4 h ([1]; po, 10 mg/kg, p.o. 10 mg/kg, 4 h, read-out: Concentration of BH in rat plasma, individual rats No1-No3): 115 ng/mL
